# “And” between values parts separate entries of the source, which are not always exact repeats. Equal values may be shown once. Toxic doses and inconclusive results are not listed. Starred links: 1 amine or outer side, 2 acyl side, 3 side chain; linkers in the order of their positions; H or OH if unused. Positions of bridges follow the written chain, without caps; N, C: chain ends. Non-standard residues stand in square brackets, D forms with d. Residues, ends and D or L forms follow the SMILES beside them. Chains are numbered I, II in the order given. Actinocin(9to1) = Cc1c2oc3c(C)ccc(C(=O)[*:1])c3nc-2c(C(=O)[*:2])c(N)c1=O; NMeV = CN[CH](C(=O)O)C(C)C; Sar = CNCC(=O)O
# System: BDF1 mice, P388 leukemia ip, median survival T/C
# Assay: NCI In Vivo Anticancer Drug Screen. Data for tumor model P388 Leukemia (intraperitoneal) in B6D2F1 (BDF1) mice
# Conditions: endpoint: median survival time, higher = longer survival
# How it was run: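 Vehicle-dosed animals serve as the reference; survival of compound-dosed, tumour-implanted mice is divided by it.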
# [1] = dose: 6.25 mg/kg/injection, schedule: Q01DX009 (ip), vehicle: saline
# [2] = dose: 12.5 mg/kg/injection, schedule: Q01DX009 (ip), vehicle: saline
# [3] = dose: 100.0 mg/kg/injection, schedule: Q01DX001 (ip), vehicle: saline sonified
# [4] = dose: 200.0 mg/kg/injection, schedule: Q01DX001 (ip), vehicle: saline sonified
# [5] = dose: 25.0 mg/kg/injection, schedule: Q01DX009 (ip), vehicle: saline
# [6] = dose: 50.0 mg/kg/injection, schedule: Q01DX009 (ip), vehicle: saline with Tween-80
# [7] = dose: 100.0 mg/kg/injection, schedule: Q01DX009 (ip), vehicle: saline with Tween-80
# [8] = dose: 100.0 mg/kg/injection, schedule: Q01DX009 (ip), vehicle: Klucel (hydroxypropylcellulose) (HPC)
# [9] = dose: 100.0 mg/kg/injection, schedule: Q04DX003 (ip), vehicle: Klucel (hydroxypropylcellulose) (HPC)
# [10] = dose: 200.0 mg/kg/injection, schedule: Q01DX009 (ip), vehicle: Klucel (hydroxypropylcellulose) (HPC)
# [11] = dose: 200.0 mg/kg/injection, schedule: Q04DX003 (ip), vehicle: Klucel (hydroxypropylcellulose) (HPC)
# [12] = dose: 400.0 mg/kg/injection, schedule: Q04DX003 (ip), vehicle: Klucel (hydroxypropylcellulose) (HPC)
structure (smiles),measurement,setting,value
N#Cc1ccc(NC(=O)N(CCCl)N=O)cc1,T/C,"dose: 0.29 mg/kg/injection, schedule: Q01DX009 (ip), vehicle: saline",122 % of control
same,T/C,"dose: 0.37 mg/kg/injection, schedule: Q01DX009 (ip), vehicle: Klucel (hydroxypropylcellulose) (HPC)",116 % of control
same,T/C,"dose: 0.44 mg/kg/injection, schedule: Q01DX009 (ip), vehicle: saline",122 % of control
same,T/C,"dose: 0.5 mg/kg/injection, schedule: Q04DX003 (ip), vehicle: Klucel (hydroxypropylcellulose) (HPC)",103 % of control
same,T/C,"dose: 0.8 mg/kg/injection, schedule: Q04DX003 (ip), vehicle: Klucel (hydroxypropylcellulose) (HPC)",107 % of control
same,T/C,"dose: 1.0 mg/kg/injection, schedule: Q01DX009 (ip), vehicle: saline",162 % of control
same,T/C,"dose: 1.56 mg/kg/injection, schedule: Q01DX009 (ip), vehicle: saline",153 % of control and 202 % of control
same,T/C,"dose: 2.0 mg/kg/injection, schedule: Q04DX003 (ip), vehicle: Klucel (hydroxypropylcellulose) (HPC)",183 % of control
same,T/C,"dose: 3.0 mg/kg/injection, schedule: Q01DX009 (ip), vehicle: Klucel (hydroxypropylcellulose) (HPC)",187 % of control
same,T/C,"dose: 3.0 mg/kg/injection, schedule: Q04DX003 (ip), vehicle: Klucel (hydroxypropylcellulose) (HPC)",170 % of control
same,T/C,"dose: 3.12 mg/kg/injection, schedule: Q01DX009 (ip), vehicle: Klucel (hydroxypropylcellulose) (HPC)",175 % of control
same,T/C,"dose: 3.12 mg/kg/injection, schedule: Q01DX009 (ip), vehicle: saline",194 % of control
same,T/C,"dose: 5.0 mg/kg/injection, schedule: Q04DX003 (ip), vehicle: Klucel (hydroxypropylcellulose) (HPC)",191 % of control and 200 % of control and 215 % of control
same,T/C,"dose: 6.25 mg/kg/injection, schedule: Q01DX009 (ip), vehicle: Klucel (hydroxypropylcellulose) (HPC)",204 % of control
same,T/C,[1],219 % of control
same,T/C,"dose: 8.0 mg/kg/injection, schedule: Q04DX003 (ip), vehicle: Klucel (hydroxypropylcellulose) (HPC)",185 % of control and 210 % of control
same,T/C,"dose: 12.0 mg/kg/injection, schedule: Q04DX003 (ip), vehicle: Klucel (hydroxypropylcellulose) (HPC)",245 % of control and 220 % of control
same,T/C,"dose: 12.5 mg/kg/injection, schedule: Q01DX009 (ip), vehicle: Klucel (hydroxypropylcellulose) (HPC)",100 % of control
same,T/C,[2],102 % of control
same,T/C,"dose: 12.5 mg/kg/injection, schedule: Q04DX003 (ip), vehicle: Klucel (hydroxypropylcellulose) (HPC)",222 % of control
same,T/C,"dose: 18.0 mg/kg/injection, schedule: Q04DX003 (ip), vehicle: Klucel (hydroxypropylcellulose) (HPC)",265 % of control and 110 % of control
same,T/C,"dose: 25.0 mg/kg/injection, schedule: Q04DX003 (ip), vehicle: Klucel (hydroxypropylcellulose) (HPC)",109 % of control
"Cc1c2oc3c(C)ccc(C(=O)NC4C(=O)NC(C(C)C)C(=O)N(C)CC(=O)N(C)CC(=O)N(C)C(C(C)C)C(=O)OC4C)c3nc-2c(C(=O)NC2C(=O)NC(C(C)C)C(=O)N(C)CC(=O)N(C)CC(=O)N(C)C(C(C)C)C(=O)OC2C)c(N)c1=O (stereo not drawn) (I: TV[Sar][Sar][NMeV] / II: TV[Sar][Sar][NMeV]; ester I:1-I:C, II:1-II:C; linker I:N-II:N via Actinocin(9to1); configuration not given here)",T/C,"dose: 125.0 micrograms/kg/injection, schedule: Q01DX009 (ip), vehicle: saline + alcohol",190 % of control
same,T/C,"dose: 250.0 micrograms/kg/injection, schedule: Q01DX009 (ip), vehicle: saline + alcohol",233 % of control
same,T/C,"dose: 500.0 micrograms/kg/injection, schedule: Q01DX009 (ip), vehicle: saline + alcohol",239 % of control
same,T/C,"dose: 750.0 micrograms/kg/injection, schedule: Q04DX003 (ip), vehicle: saline + alcohol",218 % of control
same,T/C,"dose: 1500.0 micrograms/kg/injection, schedule: Q04DX003 (ip), vehicle: saline + alcohol",239 % of control and 166 % of control
same,T/C,"dose: 3000.0 micrograms/kg/injection, schedule: Q04DX003 (ip), vehicle: saline + alcohol",175 % of control
Cn1nc([N+](=O)[O-])sc1=N,T/C,"dose: 50.0 mg/kg/injection, schedule: Q01DX001 (ip), vehicle: saline sonified",105 % of control
same,T/C,[3],105 % of control
same,T/C,[4],110 % of control
O=C1OC(=O)C2C3C=CC(O3)C12 (stereo not drawn),T/C,"dose: 3.28 mg/kg/injection, schedule: Q04DX003 (ip), vehicle: saline",100 % of control
same,T/C,[1],110 % of control
same,T/C,"dose: 6.56 mg/kg/injection, schedule: Q04DX003 (ip), vehicle: saline",100 % of control
same,T/C,[2],104 % of control and 105 % of control
same,T/C,"dose: 13.12 mg/kg/injection, schedule: Q04DX003 (ip), vehicle: saline",100 % of control
same,T/C,[5],90 % of control and 104 % of control
same,T/C,"dose: 35.0 mg/kg/injection, schedule: Q01DX009 (ip), vehicle: saline",104 % of control
C=CCCCCCCCCC(=O)NC[n+]1cccc(O)c1,T/C,"dose: 25.0 mg/kg/injection, schedule: Q01DX009 (ip), vehicle: saline with Tween-80",110 % of control
same,T/C,[6],100 % of control
same,T/C,[7],100 % of control
CC(C)OC(CCC#N)c1ccccc1 (stereo not drawn),T/C,[8],100 % of control
same,T/C,[9],95 % of control
same,T/C,[10],100 % of control
same,T/C,[11],104 % of control
same,T/C,[12],109 % of control
Cc1nc(Cl)c2cnccn12,T/C,[2],100 % of control
same,T/C,[5],95 % of control
same,T/C,"dose: 50.0 mg/kg/injection, schedule: Q01DX009 (ip), vehicle: saline",86 % of control
C[C@H]1CC2=CC(=O)CC[C@]2(C)[C@H]2CC[C@@]3(C)[C@@H](CC[C@]3(C)O)[C@H]12,T/C,[8],100 % of control
same,T/C,[9],100 % of control
same,T/C,[10],105 % of control
same,T/C,[11],95 % of control
same,T/C,[12],100 % of control
CCCCNC(C)(C)C(SSSC(c1ccco1)C(C)(C)NCCCC)c1ccco1 (stereo not drawn),T/C,"dose: 50.0 mg/kg/injection, schedule: Q04DX003 (ip), vehicle: saline with Tween-80",115 % of control
same,T/C,"dose: 200.0 mg/kg/injection, schedule: Q04DX003 (ip), vehicle: saline with Tween-80",120 % of control
COC(=O)C1C2CCc3cc(OC)ccc3C2CCC1(C)C(=O)O (stereo not drawn),T/C,[3],100 % of control
same,T/C,[4],104 % of control
same,T/C,"dose: 400.0 mg/kg/injection, schedule: Q01DX001 (ip), vehicle: saline sonified",100 % of control
CN(/N=N/c1nc[nH]c1C(N)=O)C(C)(C)C,T/C,[8],117 % of control
same,T/C,[10],108 % of control
same,T/C,"dose: 400.0 mg/kg/injection, schedule: Q01DX009 (ip), vehicle: Klucel (hydroxypropylcellulose) (HPC)",88 % of control
CCOC(c1ccccc1)(c1ccccc1)c1ccccc1,T/C,"dose: 100.0 mg/kg/injection, schedule: Q04DX003 (ip), vehicle: other",105 % of control
same,T/C,"dose: 200.0 mg/kg/injection, schedule: Q04DX003 (ip), vehicle: other",105 % of control
same,T/C,"dose: 400.0 mg/kg/injection, schedule: Q04DX003 (ip), vehicle: other",110 % of control
CCSc1ncc2cnccn12,T/C,"dose: 0.37 mg/kg/injection, schedule: Q01DX009 (ip), vehicle: water",108 % of control
same,T/C,"dose: 0.75 mg/kg/injection, schedule: Q01DX009 (ip), vehicle: water",111 % of control and 112 % of control
same,T/C,"dose: 1.0 mg/kg/injection, schedule: Q01DX009 (ip), vehicle: water",102 % of control
same,T/C,"dose: 1.5 mg/kg/injection, schedule: Q01DX009 (ip), vehicle: water",112 % of control and 117 % of control and 120 % of control
same,T/C,"dose: 2.0 mg/kg/injection, schedule: Q01DX009 (ip), vehicle: water",94 % of control and 105 % of control
same,T/C,"dose: 3.12 mg/kg/injection, schedule: Q04DX003 (ip), vehicle: water",100 % of control
same,T/C,"dose: 4.0 mg/kg/injection, schedule: Q01DX009 (ip), vehicle: water",94 % of control and 100 % of control
same,T/C,"dose: 5.0 mg/kg/injection, schedule: Q01DX009 (ip), vehicle: water",91 % of control
same,T/C,"dose: 6.0 mg/kg/injection, schedule: Q01DX009 (ip), vehicle: water",88 % of control and 104 % of control
same,T/C,"dose: 6.25 mg/kg/injection, schedule: Q04DX003 (ip), vehicle: water",100 % of control
same,T/C,"dose: 12.5 mg/kg/injection, schedule: Q04DX003 (ip), vehicle: water",102 % of control
same,T/C,"dose: 16.0 mg/kg/injection, schedule: Q01DX009 (ip), vehicle: water",89 % of control
CC(=O)NNC(=O)c1ccncc1,T/C,"dose: 100.0 mg/kg/injection, schedule: Q04DX003 (ip), vehicle: saline",100 % of control
same,T/C,"dose: 200.0 mg/kg/injection, schedule: Q04DX003 (ip), vehicle: saline",118 % of control
same,T/C,"dose: 400.0 mg/kg/injection, schedule: Q04DX003 (ip), vehicle: saline",100 % of control
Clc1ccc2c(c1)nnn2OC1CCCC1,T/C,[6],97 % of control
same,T/C,[7],88 % of control
same,T/C,"dose: 200.0 mg/kg/injection, schedule: Q01DX009 (ip), vehicle: saline with Tween-80",90 % of control
